Patent publication US20150299801A1, “Techniques for Treating Acute Lymphoblastic Leukemia (ALL)” (THE TRUSTEES OF COLUMBIA UNIVERSITY IN THE CITY OF NEW YORK, priority 2012, published 2015)

Tests used:
[1] = tested on: CUTLL1 T-ALL cells expressing RFP control or wild type NT5C2; test: MTT cell viability and chemotherapy drug response, CUTLL1 control cells; type: cell-based; conditions: CUTLL1 cells expressing RFP control or NT5C2 WT; read from graph; read-out: log concentration at which viability falls to 50% (converted)
Method: (§1) To formally test the role of NT5C2 mutations in chemotherapy resistance, the effects of wild type and relapse-associated mutant NT5C2 expression were analyzed in the response of CCRF-CEM T-ALL cells to 6-mercaptopurine (6-MP) and 6-thyogunanine (6-TG). Expression of NT5C2 mutations in ALL cells induces resistance to chemotherapy with 6-MP and 6-TG. Viability assays were performed in CCRF-CEM and CUTLL1 T-ALL cells expressing wild type NT5C2, relapse-associated mutant NT5C2 alleles, or a red fluorescent protein (RFP) as control, treated with increased concentrations of the nucleoside analog chemotherapeutic drugs.
CCRF-CEM and CUTLL1 cells were cultured in RPMI-1640 media supplemented with 10% fetal bovine serum, 100U/ml penicillin G and 100 ug/ml streptomycin at 37 C in a humidified atmosphere under 5% CO2. HEK293T were maintained under similar conditions in DMEM media. […]
Cell viability was determined by measurement of the metabolic reduction of the tetrazolium salt MTT using the Cell Proliferation Kit I (Roche, of Indianapolis, Ind.) following the manufacturer instructions. […] Viability was analyzed after 48 or 72 hours of initiation of treatment with 6-mercaptopurine, 6-thioguanine, nelarabine and Ara-G.

[2] = tested on: CUTLL1 T-ALL cells expressing relapse-associated mutant NT5C2 alleles; test: MTT cell viability and chemotherapy drug response, CUTLL1 cells expressing mutant NT5C2; type: cell-based; conditions: for increase of IC50 for mutations versus control (RFP) or wild type (NT5C2 WT): CUTLL1 cell line, NT5C2 R367Q, D407A
Method: as §1
(§2) CCRF-CEM and CUTLL1 cells were cultured in RPMI-1640 media supplemented with 10% fetal bovine serum, 100U/ml penicillin G and 100 ug/ml streptomycin at 37 C in a humidified atmosphere under 5% CO2. HEK293T were maintained under similar conditions in DMEM media.
(§3) The lentiviral constructs pLOC-NT5C2, pLOC-NT5C2 359, pLOC-I 367, pLOC-I 407 and the pLOC-RFP control plasmid were transfected with gag-pol and V-SVG expressing vectors into HEK293T cells using JetPEI transfection reagent (Polyplus, of Illkirch, France). Viral supernatants were collected after 48 h and used for infection of CCRF-CEM and CUTLL1 cells by spinoculation. After infection, cells were selected for 5 days in blasticidin and ficolled the day before experiments.
(§4) Cell viability was determined by measurement of the metabolic reduction of the tetrazolium salt MTT using the Cell Proliferation Kit I (Roche, of Indianapolis, Ind.) following the manufacturer instructions. Experiments were done in triplicates. Viability was analyzed after 48 or 72 hours of initiation of treatment with 6-mercaptopurine, 6-thioguanine, nelarabine and Ara-G.

[3] = tested on: CCRF-CEM T-ALL cells expressing RFP control or wild type NT5C2; test: MTT cell viability and chemotherapy drug response, CCRF-CEM control cells; type: cell-based; conditions: Homo sapiens; CCRF-CEM cells expressing RFP control or NT5C2 WT; read from graph; read-out: log concentration at which viability falls to 50% (converted)
Method: as §1, §2, §3, §4

[4] = tested on: CCRF-CEM T-ALL cells expressing relapse-associated mutant NT5C2 alleles; test: MTT cell viability and chemotherapy drug response, CCRF-CEM cells expressing mutant NT5C2; type: cell-based; conditions: for increase of IC50 for mutations versus control (RFP) or wild type (NT5C2 WT): CCRF-CEM cell line, NT5C2 R367Q, D407A; for IC50: Homo sapiens, CCRF-CEM cells expressing mutation (NT5C2 R367Q), read from graph, viability relative to vehicle treated cells, read-out: log concentration at which viability falls to 50% (converted); for resistance to therapy compared with empty vector and wild type NT5C2 controls: cells expressing NT5C2 K359Q, R367Q and D407A, increased drug concentrations
Method: as §1, §2, §3, §4

[5] = biological target: T1, NT5C2 WT (Homo sapiens, UniProt P49902); test: 5'-nucleotidase activity as a function of ATP concentration, wild type; type: biochemical
T1 construct: Full length cDNA constructs encoding wild type NT5C2, NT5C2 K359Q, NT5C2 R367Q and NT5C2 D407A were cloned; His6 (N); made in house; host or cells: Rosetta 2(DE3) E. coli
Method: (§5) Biochemical nucleotidase assays measuring release of phosphate upon incubation of NT5C2 with phosphonucleodides were used, including a commercial kit that measures enzymatic activity. (See file DZ123A.php in subfolder reagents of folder products in the World Wide Web at domain diazyme in category corn.)
(§6) Full length cDNA constructs encoding wild type NT5C2, NT5C2 K359Q, NT5C2 R367Q and NT5C2 D407A were cloned with an N-terminal His6 tag in the pET28a-LIC expression vector using the In-Fusion HD PCR cloning system (Clontech, of Mountain View, Calif.), as per manufacturer's instructions. Recombinant proteins were expressed from Rosetta 2(DE3) E. coli cells by induction with 0.5 mM isopropyl-β-D-thiogalactopyranoside for 3 hours at 37° C. […] Protein expression and purity was assessed y SDS-PAGE and Coomassie staining.
(§7) 5′-Nucleotidase activity of purified recombinant wild type and mutant NT5C2 proteins was assessed using the 5′-nucleotidase (5′-NT) Enzymatic Test Kit (Diazyme, of Poway, Calif.), according to the manufacturer's instructions. […] H2O2 is quantified using a Trinder reaction. 5′-Nucleotidase activity levels are calculated using a calibrator of known 5′-NT activity as standard. Assays were performed in triplicate in an Infinite M200 Tecan (of Mannedorf, Switzerland) plate reader.

[6] = biological target: T2, NT5C2 Q523X (Homo sapiens, UniProt P49902); test: 5'-nucleotidase activity as a function of ATP concentration, Q523X; type: biochemical
T2 construct: His6 (N); made in house; host or cells: Rosetta 2(DE3) E. coli (described for WT, K359Q, R367Q, D407A)
T2 sequence (P49902 1-522 limits assumed): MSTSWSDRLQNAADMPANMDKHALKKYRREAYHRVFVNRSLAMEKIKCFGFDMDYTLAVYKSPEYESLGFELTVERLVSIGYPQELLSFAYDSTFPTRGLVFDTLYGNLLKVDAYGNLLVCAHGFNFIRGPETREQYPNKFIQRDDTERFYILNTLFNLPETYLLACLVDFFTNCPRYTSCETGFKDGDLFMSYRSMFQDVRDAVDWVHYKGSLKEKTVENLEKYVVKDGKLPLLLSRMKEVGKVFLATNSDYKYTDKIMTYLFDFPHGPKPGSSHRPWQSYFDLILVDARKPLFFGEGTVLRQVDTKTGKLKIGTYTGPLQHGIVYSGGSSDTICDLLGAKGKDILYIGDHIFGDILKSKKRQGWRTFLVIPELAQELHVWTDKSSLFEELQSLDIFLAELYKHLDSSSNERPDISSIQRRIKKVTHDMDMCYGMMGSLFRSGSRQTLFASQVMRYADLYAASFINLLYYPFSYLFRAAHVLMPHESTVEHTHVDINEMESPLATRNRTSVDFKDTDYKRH

[7] = tested on: NT5C2 K359Q, R367Q, D407A, L375F, R238W; test: 5'-nucleotidase activity as a function of ATP concentration, remaining mutations; type: biochemical, human
Method: as §5, §6, §7

[8] = biological target: T3, NT5C2 R291W (Homo sapiens, UniProt P49902, R291W); test: 5'-nucleotidase activity as a function of ATP concentration, R291W; type: biochemical
T3 construct: His6 (N); made in house; host or cells: Rosetta 2(DE3) E. coli (described for WT, K359Q, R367Q, D407A)
T3 sequence (P49902 whole entry R291W): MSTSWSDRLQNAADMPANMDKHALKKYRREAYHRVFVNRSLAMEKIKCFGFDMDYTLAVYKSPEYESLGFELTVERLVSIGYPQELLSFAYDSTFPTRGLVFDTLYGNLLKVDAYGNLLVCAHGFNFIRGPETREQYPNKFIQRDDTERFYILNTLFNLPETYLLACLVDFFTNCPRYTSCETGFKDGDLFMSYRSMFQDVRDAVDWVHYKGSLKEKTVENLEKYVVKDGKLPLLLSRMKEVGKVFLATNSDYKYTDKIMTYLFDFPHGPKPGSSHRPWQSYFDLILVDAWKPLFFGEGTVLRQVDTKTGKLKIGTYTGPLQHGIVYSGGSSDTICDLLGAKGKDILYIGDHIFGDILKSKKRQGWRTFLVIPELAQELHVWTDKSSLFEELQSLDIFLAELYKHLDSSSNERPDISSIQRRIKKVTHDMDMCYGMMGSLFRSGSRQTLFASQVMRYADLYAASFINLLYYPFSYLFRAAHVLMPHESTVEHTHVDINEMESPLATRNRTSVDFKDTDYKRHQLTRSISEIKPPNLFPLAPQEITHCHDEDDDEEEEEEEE

[9] = read-out: A0.5, ATP concentration to achieve an activity equal to half Vmax

Row | IC50 [3] | increase of IC50 for mutations versus control (RFP) or wild type (NT5C2 WT) [4] | IC50 [4] | SMILES | IC50 [1] | increase of IC50 for mutations versus control (RFP) or wild type (NT5C2 WT) [2] | resistance to therapy compared with empty vector and wild type NT5C2 controls [4] | activity in cells expressing relapse-associated NT5C2 mutations compared to controls [4] | further results
1 | ~6.31 µM | about double | ~10 µM | Sc1ncnc2nc[nH]c12 [6-MP, 6-mercaptopurine] | ~6.31 µM | greater than ten times as much | increased resistance | – | –
2 | ~1 µM | greater than ten times as much | – | Nc1nc2nc[nH]c2c(=S)[nH]1 [6-TG, 6-thioguanine] | ~1 µM | about double | increased resistance | – | IC50 ([2]; CUTLL1 cells expressing mutation NT5C2 R367Q, read from graph, read-out: log concentration at which viability falls to 50% (converted)): ~3.16 µM
3 | – | – | – | Nc1ncnc2c1ncn2[C@@H]1O[C@H](COP(=O)(O)OP(=O)(O)OP(=O)(O)O)[C@@H](O)[C@H]1O [ATP] | – | – | – | – | 5'-NT activity relative to 0 mM ATP (factor of increase) ([5]; ATP concentrations over 20 mM): over 60; EC50 [5, 9]: 19500 µM; 5'-NT activity relative to 0 mM ATP (factor of increase) [6]: over 20; EC50 [6, 9]: ~3000 µM; 5'-NT activity relative to 0 mM ATP ([7]; K359Q, R367Q, D407A, L375F, R238W): little change between reference activity and maximum activity; EC50 ([7]; remaining mutations, read-out: A0.5, ATP concentration to achieve an activity equal to half Vmax): < 1000 µM; 5'-NT activity relative to 0 mM ATP (factor of increase) [8]: over 20; EC50 [8, 9]: ~4000 µM
4 | – | – | – | Nc1nc2c(ncn2[C@@H]2O[C@H](CO)[C@@H](O)[C@@H]2O)c(=O)[nH]1 [AraG] | – | – | – | equally active | –
5 | ~100 µM | – | ~100 µM | COc1nc(N)nc2c1ncn2[C@@H]1O[C@H](CO)[C@@H](O)[C@@H]1O [nelarabine] | – | – | – | equally active | –
